Laboratory results as given in ChEMBL document CHEMBL5104220, “Development of Gilteritinib-Based Chimeric Small Molecules that Potently Induce Degradation of FLT3-ITD Protein” (ACS Med Chem Lett, 2022).
Each block holds one compound with its values, some of them ahead of it. Calls of active or inactive are those of the source. No cut-off for these calls is given here.

What was measured:
[1] = target: T1, Signal transducer and activator of transcription 5A (Homo sapiens) (UniProt P42229); assay: Inhibition of STAT5 phosphorylation in human MV4-11 cells at 0.03 to 3 uM incubated for 24 hrs by Western blot analysis; type: cell-based; details: dose 0.03-3 µM
T1 sequence (whole entry): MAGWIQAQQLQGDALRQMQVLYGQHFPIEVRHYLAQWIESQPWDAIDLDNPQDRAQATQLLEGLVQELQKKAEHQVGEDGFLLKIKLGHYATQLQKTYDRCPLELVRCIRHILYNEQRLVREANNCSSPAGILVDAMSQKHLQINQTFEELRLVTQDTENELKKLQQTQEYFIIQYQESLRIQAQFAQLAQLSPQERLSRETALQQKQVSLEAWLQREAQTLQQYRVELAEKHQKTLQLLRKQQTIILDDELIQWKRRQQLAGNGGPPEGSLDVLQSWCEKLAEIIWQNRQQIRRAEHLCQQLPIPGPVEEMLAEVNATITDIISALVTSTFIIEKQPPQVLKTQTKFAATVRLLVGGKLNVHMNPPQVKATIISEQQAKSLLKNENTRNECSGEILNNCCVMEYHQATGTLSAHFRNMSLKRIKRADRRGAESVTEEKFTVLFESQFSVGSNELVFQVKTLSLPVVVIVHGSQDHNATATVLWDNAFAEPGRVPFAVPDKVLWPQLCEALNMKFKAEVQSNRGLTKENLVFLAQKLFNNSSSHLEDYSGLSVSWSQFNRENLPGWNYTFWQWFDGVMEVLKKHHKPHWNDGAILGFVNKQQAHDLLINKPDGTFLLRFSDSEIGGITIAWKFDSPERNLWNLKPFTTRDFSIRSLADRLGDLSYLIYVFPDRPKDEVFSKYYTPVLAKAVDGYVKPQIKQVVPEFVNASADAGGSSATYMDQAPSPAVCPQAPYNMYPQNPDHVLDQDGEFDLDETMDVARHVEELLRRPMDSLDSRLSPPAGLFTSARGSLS

[2] = system: Protein cereblon/Receptor-type tyrosine-protein kinase FLT3 (Homo sapiens), P36888+Q96SW2 [UNDEFINED MUTATION]; assay: PROTAC activity at CRBN/FLT3-ITD mutant in human MV4-11 cells assessed as decrease in FLT3 protein expression at 0.03 to 3 uM incubated for 24 hrs by Western blot analysis; type: cell-based; details: dose 0.03-3 µM
Protein cereblon/Receptor-type tyrosine-protein kinase FLT3 (Homo sapiens), P36888+Q96SW2 [UNDEFINED MUTATION], sequence (P36888 whole entry, looked up, stated change not applied): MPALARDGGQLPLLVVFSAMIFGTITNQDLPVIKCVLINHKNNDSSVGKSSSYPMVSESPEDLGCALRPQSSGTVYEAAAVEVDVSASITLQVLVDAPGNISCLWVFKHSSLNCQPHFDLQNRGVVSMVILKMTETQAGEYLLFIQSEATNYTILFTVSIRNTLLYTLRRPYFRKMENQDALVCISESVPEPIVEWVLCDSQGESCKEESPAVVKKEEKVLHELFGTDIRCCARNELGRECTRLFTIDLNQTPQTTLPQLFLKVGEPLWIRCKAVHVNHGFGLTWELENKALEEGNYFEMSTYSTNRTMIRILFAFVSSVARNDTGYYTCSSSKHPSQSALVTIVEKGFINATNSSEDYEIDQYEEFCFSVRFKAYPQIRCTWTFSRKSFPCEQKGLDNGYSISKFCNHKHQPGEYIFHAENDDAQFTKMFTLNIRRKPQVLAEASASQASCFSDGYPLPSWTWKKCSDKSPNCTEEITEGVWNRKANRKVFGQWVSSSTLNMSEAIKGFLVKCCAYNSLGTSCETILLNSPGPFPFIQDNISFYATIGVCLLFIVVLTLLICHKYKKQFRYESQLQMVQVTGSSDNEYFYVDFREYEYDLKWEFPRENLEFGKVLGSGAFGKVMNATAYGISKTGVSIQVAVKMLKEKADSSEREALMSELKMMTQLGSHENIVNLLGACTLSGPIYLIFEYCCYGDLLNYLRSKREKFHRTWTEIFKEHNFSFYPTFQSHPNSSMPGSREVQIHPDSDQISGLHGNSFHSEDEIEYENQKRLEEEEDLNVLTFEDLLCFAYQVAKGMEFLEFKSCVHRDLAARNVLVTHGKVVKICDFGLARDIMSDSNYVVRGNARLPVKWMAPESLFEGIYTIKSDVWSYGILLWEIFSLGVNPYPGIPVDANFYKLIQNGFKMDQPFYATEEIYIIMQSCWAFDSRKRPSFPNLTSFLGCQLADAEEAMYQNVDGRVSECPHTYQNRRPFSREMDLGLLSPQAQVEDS
Protein cereblon/Receptor-type tyrosine-protein kinase FLT3 (Homo sapiens), P36888+Q96SW2 [UNDEFINED MUTATION], sequence (Q96SW2 whole entry, looked up, stated change not applied): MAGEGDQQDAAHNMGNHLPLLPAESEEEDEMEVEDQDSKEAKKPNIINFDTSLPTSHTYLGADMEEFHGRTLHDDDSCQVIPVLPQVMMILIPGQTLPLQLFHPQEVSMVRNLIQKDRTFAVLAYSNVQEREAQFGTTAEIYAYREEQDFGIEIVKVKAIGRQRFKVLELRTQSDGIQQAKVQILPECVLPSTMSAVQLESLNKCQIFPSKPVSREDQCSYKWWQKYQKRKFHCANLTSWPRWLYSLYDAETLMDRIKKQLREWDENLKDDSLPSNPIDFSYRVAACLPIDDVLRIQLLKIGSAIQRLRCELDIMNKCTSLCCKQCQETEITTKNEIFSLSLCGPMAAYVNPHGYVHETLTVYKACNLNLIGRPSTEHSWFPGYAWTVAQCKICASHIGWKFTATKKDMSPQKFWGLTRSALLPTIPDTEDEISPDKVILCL

[3] = system: Protein cereblon/Receptor-type tyrosine-protein kinase FLT3 (Homo sapiens), P36888+Q96SW2 [UNDEFINED MUTATION]; assay: PROTAC activity at CRBN/FLT3-ITD mutant in human MOLM-14 cells assessed as decrease in FLT3 protein expression at 0.03 to 3 uM incubated for 24 hrs by Western blot analysis; type: cell-based; details: dose 0.03-3 µM
[4] = system: Protein cereblon/Receptor-type tyrosine-protein kinase FLT3 (Homo sapiens), P36888+Q96SW2 [UNDEFINED MUTATION]; assay: PROTAC activity at CRBN/FLT3-ITD mutant in human MV4-11 cells assessed as inhibition of FLT3 phosphorylation at 0.03 to 3 uM incubated for 24 hrs by Western blot analysis; type: cell-based; details: dose 0.03-3 µM
[5] = system: Protein cereblon/Receptor-type tyrosine-protein kinase FLT3 (Homo sapiens), P36888+Q96SW2 [UNDEFINED MUTATION]; assay: PROTAC activity at CRBN/FLT3-ITD mutant in human MV4-11 cells assessed as inhibition of STAT5 phosphorylation at 0.03 to 3 uM incubated for 24 hrs by Western blot analysis; type: cell-based; details: dose 0.03-3 µM
MOLM-14 = assay: Antiproliferative activity against human MOLM-14 cells harboring FLT3-ITD mutant assessed as inhibition of cell proliferation incubated for 72 hrs by WST-8 assay; type: functional, cell-based; details: MOLM-14, 72 h
[6] = system: Protein cereblon/Receptor-type tyrosine-protein kinase FLT3 (Homo sapiens), P36888+Q96SW2 [UNDEFINED MUTATION]; assay: PROTAC activity at CRBN/FLT3-ITD mutant in human MOLM-14 cells assessed as decrease in LTK protein expression by Western blot analysis; type: cell-based
MV4-11 = assay: Antiproliferative activity against human MV4-11 cells harboring FLT3-ITD mutant assessed as inhibition of cell proliferation incubated for 72 hrs by WST-8 assay; type: functional, cell-based; details: MV4-11, 72 h
[7] = system: Protein cereblon/Receptor-type tyrosine-protein kinase FLT3 (Homo sapiens), P36888+Q96SW2 [UNDEFINED MUTATION]; assay: PROTAC activity at CRBN/FLT3-ITD mutant in human MOLM-14 cells assessed as decrease in ALK protein expression by Western blot analysis; type: cell-based
[8] = system: Protein cereblon/Receptor-type tyrosine-protein kinase FLT3 (Homo sapiens), P36888+Q96SW2 [UNDEFINED MUTATION]; assay: PROTAC activity at CRBN/FLT3-ITD mutant in human MV4-11 cells assessed as decrease in FLT3 protein expression at 0.3 to 3 uM incubated for 18 hrs in the presence of bafilomycin A1 by Western blot analysis; type: cell-based; details: dose 0.3-3 µM
[9] = system: Protein cereblon/Receptor-type tyrosine-protein kinase FLT3 (Homo sapiens), P36888+Q96SW2 [UNDEFINED MUTATION]; assay: PROTAC activity at CRBN/FLT3-ITD mutant in human MV4-11 cells assessed as decrease in LTK protein expression by Western blot analysis; type: cell-based
[10] = system: Protein cereblon/Receptor-type tyrosine-protein kinase FLT3 (Homo sapiens), P36888+Q96SW2 [UNDEFINED MUTATION]; assay: PROTAC activity at CRBN/FLT3-ITD mutant in human MV4-11 cells at 30 nM measured upto 32 hrs in the presence of cycloheximide by Western blot analysis; type: cell-based
[11] = system: Protein cereblon/Receptor-type tyrosine-protein kinase FLT3 (Homo sapiens), P36888+Q96SW2 [UNDEFINED MUTATION]; assay: PROTAC activity at CRBN/FLT3-ITD mutant in human MOLM-14 cells assessed as decrease in IKZF1 protein expression at 0.01 to 0.3 uM incubated for 24 hrs by Western blot analysis; type: cell-based; details: dose 0.01-0.3 µM
[12] = system: Protein cereblon/Receptor-type tyrosine-protein kinase FLT3 (Homo sapiens), P36888+Q96SW2 [UNDEFINED MUTATION]; assay: PROTAC activity at CRBN/FLT3-ITD mutant in human MV4-11 cells assessed as decrease in IKZF1 protein expression at 0.01 to 0.3 uM incubated for 24 hrs by Western blot analysis; type: cell-based; details: dose 0.01-0.3 µM
[13] = system: Protein cereblon/Receptor-type tyrosine-protein kinase FLT3 (Homo sapiens), P36888+Q96SW2 [UNDEFINED MUTATION]; assay: PROTAC activity at CRBN/FLT3-ITD mutant in human MOLM-14 cells assessed as decrease in FLT3 mRNA expression at 0.03 to 3 uM incubated for 24 hrs by RT-qPCR analysis; type: cell-based; details: dose 0.03-3 µM
[14] = system: Protein cereblon/Receptor-type tyrosine-protein kinase FLT3 (Homo sapiens), P36888+Q96SW2 [UNDEFINED MUTATION]; assay: PROTAC activity at CRBN/FLT3-ITD mutant in human MV4-11 cells assessed as decrease in ALK protein expression by Western blot analysis; type: cell-based

Structure (SMILES): CCc1nc(C(N)=O)c(Nc2ccc(N3CCC(N4CCN(CC5CCN(C(=O)CCOCCOCCOCCOCCNc6cccc7c6C(=O)N(C6CCC(=O)NC6=O)C7=O)CC5)CC4)CC3)c(OC)c2)nc1NC1CCOCC1 (stereo unspecified)
Activity [2]: Active
Activity [3]: Active
Activity [4]: Active
Activity [5]: Active

Structure (SMILES): CCc1nc(C(N)=O)c(Nc2ccc(N3CCC(N4CCN(C)CC4)CC3)c(OC)c2)nc1NC1CCOCC1
inhibition [1]: Active

Structure (SMILES): CNC(=O)c1cc(Oc2ccc(NC(=O)Nc3ccc(Cl)c(C(F)(F)F)c3)cc2)ccn1
inhibition [1]: Active

Structure (SMILES): CCc1nc(C(N)=O)c(Nc2ccc(N3CCC(N4CCN(CC5CCN(C(=O)CCOCCOCCNc6cccc7c6C(=O)N(C6CCC(=O)NC6=O)C7=O)CC5)CC4)CC3)c(OC)c2)nc1NC1CCOCC1 (stereo unspecified)
IC50 (MOLM-14): 2.8 nM
Activity [6]: Active
Activity [2]: Active
IC50 (MV4-11): 0.9 nM
Activity [7]: Active
Activity [3]: Active
Activity [8]: Active
Activity [9]: Active
Activity [10]: Active
Activity [11]: Active
Activity [12]: Active
Activity [13]: Active
Activity [14]: Active

Other lines, results leading:

inhibition [1]: Active
Structure (SMILES): CC1(COc2ccc3c(c2)ncn3-c2ccc3cccc(N4CCC(N)CC4)c3n2)COC1

inhibition [1]: Active
Structure (SMILES): CC(C)(C)c1cc(NC(=O)Nc2ccc(-c3cn4c(n3)sc3cc(OCCN5CCOCC5)ccc34)cc2)no1
